Source: patent US5770688A, “Method and composition for the treatment of mammalian HIV infection” (GSF-Forschungszentrum fur Umwelt und Gesundheit GmbH, priority 1989, dated 1998)

Columns and labels:
[1] = tested on: reverse transcriptase; experiment: activity of reverse transcriptase in the supernatant of treated, HIV infected cell culture; assay type: cell-based
Description: Referring more particularly to FIGS. 1-4, melittin (Seq. ID NO:1) and its specified analogues were tested for their effect on HIV-infected T-lymphoma cells. In this regard the following cell lines were employed in the testing: KE37-1 (uninfected) and KE37-1/111S (infected with HTLV-111β). These infected cells were incubated for a period of seven days under test conditions at a temperature of 37° C. and in the presence of 5% CO2. A culture medium of RPMI 1640 (GIBCO) was employed and was further supplemented with 10% fetal calf serum which contained approximately 100 units of penicillin, 100μ of streptomycin, and approximately 0.25μ fungizone (Amphotericin B) per milliliter. This equals 1 milliliter of antibiotic-antimycotic solution (GIBCO Catalogue No. 043-05240 per 100 ml. of medium.) After a one week incubation period in the presence of various concentrations of the above-identified substances, which were added fresh daily to the medium, the following tests were carried out with the cultures. A first test was conducted for purposes of determining the relative cell concentration as a function of the number of HIV infected cells present by employing an MTT test. […] The optical density (OD) of the solution was determined at=600 nm. […]

[2] = tested on: feline immunodeficiency virus (FIV); experiment: Example 3: FIV replication in naturally infected cats, quantitative FIV-PCR; assay type: in vivo
Description: To further investigate the effects of melittin (Seq. ID NO:1) on virus replication in retroviral infected cells or the inhibition of retroviral infected cell growth, a series of experiments were conducted utilizing cats which were naturally infected with the feline immunodeficiency virus (FIV). FIV is in its genomic and viral structure, in many respects, very similar to the human immunodeficiency virus (HIV). Therefore, it is widely regarded as similar to HIV, that is, it is a member of the Lentivirus subfamily, of the retrovirus family. Further, it has been determined that experimentally and naturally infected cats having FIV, display very similar disease characteristics such as immunedysfunction or other neurological disorders which can be taken as a relevant model for HIV infection in humans. This is discussed in greater detail in the article authored by Egberink et. al. "Suppression of feline immuno-deficiency virus infection in vivo by 9-(2-phosphonomethoxyethyl)adenine," Proc. Natl. Acad. Sci. 87, 3087-3091 (1990).
In the following series of experiments, two naturally FIV infected cats (M and G) were used. These particular cats were kept for more than one year under constant observation in the Clinic for Internal Medicine at the Veterinary School in Munich, Germany before the onset of melittin (Seq. ID NO:1) treatment. In each cat, FIV infection had been confirmed by detecting an antibody ELISA. In this regard, a test marketed under the tradename PetChek® and which is available from the same company in Portland, Maine was employed. As best seen in FIG. 53. The antibody titer against FIV in both cats was approximately 1:50. As a general matter, the overall physical condition of both cats was good during the observation period. Further and during the experiment, cat M developed shortly before melittin treatment a pneumonitis which was not treated in a conventional fashion. The individual body weights of each cat at the beginning of melittin treatment was 4 kilograms and 2.2 kilograms for cats M and G, respectively.
During the experiment it was determined that detectable blood serum levels of melittin (Seq. ID NO:1) of about 5 ng/ml could be detected following an injection of melittin equal to […] a few minutes after injection. […] In vitro data has shown that melittin, after this time interval, is found within the cells where it can be detected in tact for more than 48 hours. The LD50 (lethal dose where 50% of the animals perish) for melittin is not known for cats. […] The quantitative effect of melittin on FIV replication was determined quantitatively by utilizing FIV-PCR employing nested primers from the gag region. Quantification was based upon the determination of amplified product in identical samples which have been amplified after different cycle times. […]

In the case of “Gly-Ile-Gly-Ala-Val-Leu-Lys-Val-Leu-Thr-Thr-Gly-Leu-Pro-Ala-Leu-Ile-Ser-Trp-Ile-Lys-Arg-Lys-Arg-Gln-Gln-Amide [melittin]”, the “activity of reverse transcriptase (RT%)” value ([1]; 2.5 μg per ml, FIG. 2) is reported as “revert substantially back to zero”, the “activity of reverse transcriptase, in words” value ([1]; subtoxic concentrations) is reported as “inhibition of reverse transcriptase” and the “reduction in virus load” value ([2]; FIV model, summary) is reported as 50%. For the same substance, the “amplification of FIV specific sequences, in words” value ([2]; cat G, day 42 and following days) was “a reduced amplification could already be seen in the sample from day 42 and the following days”, the “amplification of FIV specific sequences, late samples, in words” value ([2]; cat M, days 56 and 116) was “reduced amplification” and the “reduction of the virus load” value ([2]; cat M, days 56 and 116) was no less than 50%.
